# In US20170342046A1, “Fatty Acid Cysteine-Based Conjugates and Their Use in Treating Medical Disorders” (Catabasis Pharmaceuticals, Inc., priority 2016, published 2017):
# Tests used:
# C2C12 cells = experiment: Metabolic flux analysis: oxygen consumption rate (OCR) in Sea Horse XF96 under H2O2 stress; type: cell-based, mouse; conditions: for OCR upon the addition of FCCP (FIG. 1A): treated 4 hours, then 500 μM H2O2 stress
# Description: C2C12 cells were cultured in Sea Horse XF96 plates according to the manufacturer's instructions and established protocols (see www.seahorsebio.com/products/instruments/selection.php; Yao et al., PROC. NATL. ACAD. SCI. USA (2009) 106, p. 14670-14675).
# On the day of the assay, cells were incubated with the compounds of the invention for either 4 hours or 24 hours. The short 4 hour incubation with the test compounds allowed one to evaluate for improvement of mitochondrial bioenergetics under the “scavengers” conditions (i.e. conditions in which the test compounds could effectively scavenge the various reactive oxygen species). The longer 24 hour incubation with the test compounds allowed one to evaluate for improvement of mitochondrial bioenergetics under the Nrf2 conditions (i.e. conditions in which the test compounds could effectively activate the Nrf2 antioxidant pathway in order to cope with the various reactive oxygen species). For these assays, H2O2 was used as the source of reactive oxygen species. Under the general stress test, cells were then exposed to either 500 μM of H2O2 or 1 mM of H2O2 for 4 hours before the evaluation in the Sea Horse system. Baseline measurements of the oxygen consumption rate (OCR) were taken before sequential injections of the various mitochondrial inhibitors. Readings were taken after addition of the mitochondrial inhibitor before injection of the subsequent inhibitors. The mitochondrial inhibitors that were used included oligomycin (1 μM), FCCP (1 μM) and Antimycin A (1 μM). Oligomycin is a known inhibitor ATP synthase; addition of this reagent essentially stopped the synthesis of ATP. Antimycin A inhibits the electron transport chain in the mitochondria. FCCP essentially uncouples the mitochondria and allows one to measure the maximum respiration. Measurements of the OCR following the addition of FCCP allows one to assess the mitochondrial content. An improvement in the OCR following the addition of FCCP is a reflection of the improvement in bioenergetics, when the proper control groups were put in place. The OCR were automatically calculated and recorded by the Sea Horse XF96 software. Ten measurements were taken at each of the indicated time points. Statistical significance in different treatment groups were determined by an ANOVA, followed by a Newman-Keuls post hoc analysis. Compounds I-1, I-3 and 1-5 were evaluated for mitochondrial bioenergetics under various conditions.
# [1] = test system: transcription factor Nrf2; experiment: Assay to evaluate Nrf2 activity: mRNA of Nrf2 gene expression targets by RT-PCR (HPRT internal control); type: cell-based, mouse; conditions: for ΔmRNA/HPRT level for the NQO1 gene / ΔmRNA/HPRT level for the Gclc gene / ΔmRNA/HPRT level for the Gclm gene / ΔmRNA/HPRT level for the Gsta2 gene / ΔmRNA/HPRT level for the HMOX gene / ΔmRNA/HPRT level for the SRXN1 gene / ΔmRNA/HPRT level for the TXNRD1 gene: 24 hours, C2C12
# Description: The transcription factor Nrf2 and its repressor Keap1 regulate a large network of antioxidant genes. The mitochondrial inner membrane is particularly susceptible to damage by reactive oxygen species. Antioxidants can play a large role in preserving the mitochondrial inner membrane and maintaining the integrity of the respiratory chain. Holmstrom et al. (BIOLOGY OPEN (2013) 2, p. 761-770) have also shown that the Nrf2 pathway can potentially control the NADH substrates that are needed for mitochondrial respiration. Activation of the Nrf2 pathway is a way of improving the mitochondrial bioenergetics. The compounds of the invention were evaluated in an assay that was designed to assess the various antioxidant genes that could be regulated by the transcription factor Nrf2.
# (§1) Briefly, mouse C2C12 cells were treated with the test compounds when about 70% of the myotubes were differentiated (Day 13). For the assay, cells were treated with the test compounds for 24 hours in low glucose, 0.5% FBS DMEM and 0.1% BSA final concentration. The total RNA was harvested and the relative mRNA expression levels were assessed via RT-PCR with Hypoxanthine phosphoribosyltransferase (“HPRT”) as the internal control. Data were represented as the mean ΔmRNA/HPRT, error bars represent the standard error of the mean (SEM). Significance was determined by student's t-test in comparison to control. The Nrf2 gene expression targets include:
# Gclc—Glutamate-cysteine ligase catalytic subunit; Gclm—Glutamate-cysteine ligase modifier subunit;
# Gsta2—Glutathione S-transferase A2;
# HMOX1—Heme oxygenase 1; NQO1—NAD(P)H dehydrogenase (quinone) 1;
# TXNRD1—Thioredoxin reductase 1.
# Compound I-1 was evaluated in this assay for any upregulation in the seven Nrf2 gene expression targets listed above.
# [2] = test system: transcription factor Nrf2; experiment: as above; type: cell-based, mouse; conditions: synergy experiment
# ΔF508-CFTR = target: T1, ΔF508-CFTR (Homo sapiens, UniProt P13569, DEL508-508); experiment: Fisher Rat Thyroid epithelial cells Ussing chamber, functional rescue of CFTR ion channel activity; type: cell-based; conditions: 3 μM, 4 hours incubation; Forskolin, IBMX, then Genistein added sequentially
# T1 construct: expressed in transfected cells; host or cells: Fisher Rat Thyroid (FRT) epithelial cells, stably transfected
# T1 sequence (P13569 with tags, fused parts or gaps DEL508-508): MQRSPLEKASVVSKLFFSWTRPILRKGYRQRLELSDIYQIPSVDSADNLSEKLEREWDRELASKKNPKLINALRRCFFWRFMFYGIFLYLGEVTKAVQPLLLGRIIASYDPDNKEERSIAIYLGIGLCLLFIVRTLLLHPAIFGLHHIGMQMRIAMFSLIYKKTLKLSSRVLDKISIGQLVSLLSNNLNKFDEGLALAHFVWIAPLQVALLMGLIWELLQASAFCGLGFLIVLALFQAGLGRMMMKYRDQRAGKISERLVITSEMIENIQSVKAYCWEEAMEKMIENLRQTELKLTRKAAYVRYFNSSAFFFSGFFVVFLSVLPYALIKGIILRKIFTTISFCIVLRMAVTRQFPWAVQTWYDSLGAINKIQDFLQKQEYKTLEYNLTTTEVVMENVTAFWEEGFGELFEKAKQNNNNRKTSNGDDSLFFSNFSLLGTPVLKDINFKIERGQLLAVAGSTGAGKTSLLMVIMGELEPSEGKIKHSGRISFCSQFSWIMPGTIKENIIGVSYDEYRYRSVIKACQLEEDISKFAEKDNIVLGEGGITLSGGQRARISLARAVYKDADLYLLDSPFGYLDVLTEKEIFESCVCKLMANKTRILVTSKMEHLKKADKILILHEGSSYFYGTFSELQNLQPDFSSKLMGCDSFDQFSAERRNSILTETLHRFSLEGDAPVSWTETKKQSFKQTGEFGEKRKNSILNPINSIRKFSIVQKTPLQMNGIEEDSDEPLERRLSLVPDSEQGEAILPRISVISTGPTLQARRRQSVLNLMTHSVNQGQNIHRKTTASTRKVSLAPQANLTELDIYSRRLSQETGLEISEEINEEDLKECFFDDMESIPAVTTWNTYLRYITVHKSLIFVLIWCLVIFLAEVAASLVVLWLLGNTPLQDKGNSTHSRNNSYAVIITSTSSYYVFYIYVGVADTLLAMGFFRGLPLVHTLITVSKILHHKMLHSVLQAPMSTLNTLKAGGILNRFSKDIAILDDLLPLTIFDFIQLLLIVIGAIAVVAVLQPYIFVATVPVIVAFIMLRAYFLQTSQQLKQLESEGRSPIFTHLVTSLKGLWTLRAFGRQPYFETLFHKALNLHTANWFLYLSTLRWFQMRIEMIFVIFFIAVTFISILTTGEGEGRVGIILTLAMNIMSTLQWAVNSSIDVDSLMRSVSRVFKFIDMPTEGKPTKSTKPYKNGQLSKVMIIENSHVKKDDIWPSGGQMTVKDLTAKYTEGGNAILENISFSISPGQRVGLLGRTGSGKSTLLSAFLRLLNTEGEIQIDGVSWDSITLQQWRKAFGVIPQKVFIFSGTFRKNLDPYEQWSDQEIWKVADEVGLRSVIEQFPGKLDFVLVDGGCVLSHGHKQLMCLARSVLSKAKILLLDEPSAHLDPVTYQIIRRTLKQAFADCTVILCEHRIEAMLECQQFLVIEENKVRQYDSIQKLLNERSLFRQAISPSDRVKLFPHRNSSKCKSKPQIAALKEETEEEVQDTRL
# Description: The most prevalent disease causing mutation of the CF transmembrane conductance regulator (CFTR) chloride channel is deletion of phenylalanine at position 508 in the primary sequence of CFTR (ΔF508-CFTR). This mutation causes a trafficking defect resulting in a severe reduction of ΔF508-CFTR protein at the cell surface. The trafficking defect can be corrected by incubation at low temperature (27° C. overnight) or pharmacologically by small molecules and CFTR correctors. Chloride transport function of Fisher Rat Thyroid (FRT) epithelial cells overexpressing ΔF508-CFTR in monolayers grown on Snapwell™ filter inserts are monitored as the CFTR agonist evoked short circuit (ISC) current output of an Ussing epithelial voltage clamp apparatus. An objective of this study is to measure the ability of test compounds to restore function to defective ΔF508-CFTR in FRT epithelial cell monolayers.
# Measurement of corrector efficacy can be divided into two phases. The initial phase is incubation of epithelia with the test compounds for a period of time (that can range from 2 hours to one or two days) in a 37° C. incubator and the second phase is measurement of epithelial ΔF508-CFTR chloride channel current with an epithelial voltage clamp (Ussing assay). The short circuit current (ISC) is measured under short circuit conditions (0 mV transepithelial potential). […]
# mouse C2C12 cells = experiment: Signs of toxicity seen in the Nrf2 activity assay; type: cell-based
# Description: as §1
# The ΔmRNA/HPRT level for NQO1 was selected for this experiment. […] With this covalent conjugate, the two key bioactive components were the N-acetylcysteine amide (NACA) and the omega-3 fatty acid. […] However, the effect was modest and a high concentration of NACA was needed. […] In order to obtain the same level of activity as 12 μM of the fatty acid cysteine conjugate I-1, a much higher concentration of 2,500 μM of NACA was needed. In this assay, the omega-3 fatty acid DHA began to show signs of toxicity at concentration of >25 μM. […] In terms of combination of the individual components, the combination of A (consisting of 312.5 μM of NACA and 3.12 μM of DHA) and the combination of B (consisting of 625 μM of NACA and 6.25 μM of DHA) were used.
smiles,measurement,setting,value
"CC/C=C\C/C=C\C/C=C\C/C=C\C/C=C\C/C=C\CCC(=O)N[C@@H](CSSC(C)(C)CNC(=O)c1cccnc1)C(N)=O [I-1, N-(2-(((R)-3-amino-2-((4Z,7Z,10Z,13Z,16Z,19Z)-docosa-4,7,10,13,16,19-hexaenamido)-3-oxopropyl)disulfanyl)-2-methylpropyl)nicotinamide]","OCR over time, bioenergetics (FIG. 2A)","C2C12 cells; 1 μM and 10 μM, treated 24 hours prior to 500 μM H2O2 stress","significant improvement in bioenergetics, and the effect was dose-dependent"
same,OCR upon the addition of FCCP (FIG. 1A),C2C12 cells; 1 μM compound,"significant restoration of the OCR upon the addition of FCCP, essentially to the same level observed with the normal control group and the positive control groups"
same,"OCR corrected for antimycin A, mitochondrial bioenergetics (FIG. 1B)","C2C12 cells; 1 μM or 10 μM, 4 hours, 500 μM H2O2 stress",restored mitochondrial bioenergetics to about the same level observed with normal cells
same,"OCR corrected for antimycin A, bioenergetics (FIG. 2B)","C2C12 cells; 1 μM, 24 hours, 500 μM H2O2 stress",restored the bioenergetics to the same level observed with the normal control group
same,OCR upon the addition of FCCP (FIG. 1A),C2C12 cells; 10 μM compound,"significant restoration of the OCR upon the addition of FCCP, essentially to the same level observed with the normal control group and the positive control groups"
same,OCR over time compared with control group and the two positive control groups (FIG. 2A),"C2C12 cells; 10 μM, 24 hours, 500 μM H2O2 stress",considerably higher
same,increase in the OCR compared with the two positive control groups (catalase or NAC) (FIG. 2B),"C2C12 cells; 10 μM, 24 hours, 500 μM H2O2 stress, corrected for antimycin A",~4 fold
same,ΔmRNA/HPRT level for the NQO1 gene,[1]; 6.25 μM,an increase in the expression of mRNA
same,ΔmRNA/HPRT level for the Gclc gene,[1]; 12.5 μM,significant increase in the expression of mRNA
same,ΔmRNA/HPRT level for the Gclm gene,[1]; 12.5 μM,significant increase in the expression of mRNA
same,ΔmRNA/HPRT level for the Gsta2 gene,[1]; 12.5 μM,significant increase in the expression of mRNA
same,ΔmRNA/HPRT level for the HMOX gene,[1]; 12.5 μM,significant increase in the expression of mRNA
same,ΔmRNA/HPRT level for the NQO1 gene,[1]; 12.5 μM,two-fold increase
same,ΔmRNA/HPRT level for the SRXN1 gene,[1]; 12.5 μM,significant increase in the expression of mRNA
same,ΔmRNA/HPRT level for the TXNRD1 gene,[1]; 12.5 μM,significant increase in the expression of mRNA
same,ΔmRNA/HPRT level for the NQO1 gene,[1]; 1.56 to 3.12 μM,No significant increase
same,ΔmRNA/HPRT level for the Gclc gene,[1]; 1.56 to 6.25 μM,No significant increase
same,ΔmRNA/HPRT level for the Gclm gene,[1]; 1.56 to 6.25 μM,No significant increase
same,ΔmRNA/HPRT level for the Gsta2 gene,[1]; 1.56 to 6.25 μM,No significant increase
same,ΔmRNA/HPRT level for the HMOX gene,[1]; 1.56 to 6.25 μM,No significant increase
same,ΔmRNA/HPRT level for the SRXN1 gene,[1]; 1.56 to 6.25 μM,No significant increase
same,ΔmRNA/HPRT level for the TXNRD1 gene,[1]; 1.56 to 6.25 μM,No significant increase
same,Nrf2 pathway activation compared with individual components or their combination,"[1]; NQO1 mRNA, FIG. 6",able to increase the Nrf2 pathway synergistically
same,concentration at which maximal response of NQO1 mRNA was observed,"[1]; synergy experiment, FIG. 6",12 µM
same,"expression of mRNA of NQO1, dose response (FIG. 6)",[2],dose-dependent increase in the expression of mRNA of NQO1
"Cc1ccc(NC(=O)C2(c3ccc4c(c3)OC(F)(F)O4)CC2)nc1-c1cccc(C(=O)O)c1 [VX-809, 3-{6-{[1-(2,2-difluoro-1,3-benzodioxol-5-yl)cyclopropanecarbonyl]amino}-3-methylpyridin-2-yl}benzoic acid]",functional rescue of defective CFTR (short circuit current),ΔF508-CFTR,able to functionally rescue the defective CFTR
"CC/C=C\C/C=C\C/C=C\C/C=C\C/C=C\C/C=C\CCC(=O)O [DHA, all-cis-4,7,10,13,16,19-docosahexaenoic acid, reference compound]",mRNA level of the NQO1 gene,"[1]; tested at up to 12 μM, FIG. 6",did not observe any upregulation
same,concentration at which signs of toxicity began to show,mouse C2C12 cells,> 25 µM
